US12364752B2, “Methods of enhancing immunogenicity of poorly immunogenic antigen-specific vaccines using oral yeast beta-glucans” (priority 2018, dated 2025)

Columns and labels:
[1] = Livingston et al. 1994; cited from earlier work
neuroblastoma = experiment: Phase I trial of GD2/GD3 bivalent vaccine with oral beta-glucan; conditions: at 150 μg/m^2 s.c. with bivalent vaccine
Description: Patients with neuroblastoma in ≥2nd complete/very good partial remission received vaccine subcutaneously (at weeks 1, 2, 3, 8, 20, 32 and 52). The bivalent vaccine contained 30 μg each of GD2 and GD3 stabilized as lactones and conjugated to the immunologic carrier protein keyhole limpet hemocyanin (KLH); and OPT-821, which was dose escalated as 50, 75, 100, and 150 μg/m^2 per s.c. injection. Oral beta-glucan administration (40 mg/kg/day, 14 days on/14 days off x 12 cycles) was started at week 6 (FIG. 14).

Ramos tumor cells = experiment: Ramos xenografts in SCID mice, Rituxan plus oral botanical adjuvants; format: in vivo; conditions: Rituxan alone at 5 μg dose
Description: SCID mice (Jackson Lab, Bar Harbor ME) were first implanted subcutaneously in the flank area with Ramos tumor cells (a human lymphoma cell line; Pagel et al., Blood 108:328-36 (2006)) freshly harvested from culture and suspended in 100 μl matrigel (BD Biosciences, Billerica MA). When small palpable tumors started to appear (6-8 mm size), mice were randomly separated into treatment groups of 5 mice each. Mice were then given either oral botanical adjuvant, intravenous Rituxan mAb, or oral botanical adjuvant plus Rituxan mAb for 3 weeks. MAb was given twice a week through the tail vein. 2 mg of the tested botanical adjuvant (20 mg/ml solution or suspension in LPS-free water) was given by intragastric injection for 5 times a week. Tumor sizes (length and width) were measured twice a week with calipers. Mice were sacrificed when tumors were larger than 20 mm in length. For each botanical adjuvant, two endpoints were obtained: (1) positive anti-tumor effect [defined as statistically different from control group (treated with antibody alone)] and (2) anti-tumor index defined as (Mean tumor growth rate in mice treated with antibody alone)/(Mean tumor growth rate in mice treated with botanical adjuvant+antibody).

Substance	maximal tolerated dose [1] [µg]	dose-limiting toxicity (neuroblastoma)	tumor growth suppressed (Ramos tumor cells) [%]
QS21	20	no dose-limiting toxicity	–
Rituxan: rituximab mAb	–	–	30
